# Values quoted from earlier work in publication PMC3848067 (Acta Naturae, 2013).
# Where two headings read alike, the source gives them in different places.
# Tests used:
# [1] = set-up: method as in PMID 20380483; details: after oral administration of the named drug; cited from earlier work
# [2] = dogs, value for the tested compound (2 or its metabolite AZT), cited from earlier work
# [3] = rabbits, single oral dose of the named compound equivalent to 200 mg of AZT/kg; cited from earlier work
# [4] = metabolite AZT after oral phosphonate 2, 20 mg/kg, rats; cited from earlier work
# [5] = dogs, cited from earlier work; for tmax of AZT: oral phosphonate 2 capsules 600 mg daily
# [6] = cited from earlier work
# [7] = system: MT-4 cells; details: MT-4 cell culture; cited from earlier work
# [8] = system: HIV infection; details: cited from earlier work
# [9] = system: HIV; details: cited from earlier work
# [10] = system: mice; details: intraperitoneal administration to mice; cited from earlier work
# [11] = system: HIV-1; details: MT-4 cell culture; cited from earlier work
# [12] = system: HIV-1; details: MT-4, CEM-SS and CEM-X174 cell lines; cited from earlier work
# [13] = system: HIV-1; details: cell cultures C8 and JM; cited from earlier work
# [14] = system: IIIB strain of HIV; details: IIIB strain of HIV in blood mononuclear cells; cited from earlier work
# [15] = system: HXB2 strain of HIV; details: HXB2 strain of HIV in blood mononuclear cells; cited from earlier work
# [16] = cited from earlier work; remark: listed apart in the source
# [17] = canine whole blood at 37°С; cited from earlier work
# [18] = single oral dose of capsules of 2, 10 mg/kg
# [19] = single oral dose of capsules of 2, 20 mg/kg
# [20] = single oral dose of capsules of 2, 40 mg/kg
# [21] = compound 2 orally 600 mg for 7 days, 24 h intervals, day 7
smiles,measurement,setting,value
"Cc1cn([C@H]2C[C@H](N=[N+]=[N-])[C@@H](CO)O2)c(=O)[nH]c1=O [AZT, 3’-azido-3’-deoxythymidine]",Cmax of AZT,[1],~1200 ng/mL
same,tmax of AZT,[1],0.5 to 0.8 h
same,Cmax,[2]; [18],360 ± 240 ng/mL
same,Cmax/AUC,[2]; [18],0.119 ± 0.033 h⁻¹
same,MRT,[2]; [18],8.90 ± 5.34 h
same,t1/2,[2]; [18],4.57 ± 1.46 h
same,tmax,[2]; [18],4.7 ± 1.0 h
same,Cmax,[2]; [19],690 ± 490 ng/mL
same,Cmax/AUC,[2]; [19],0.107 ± 0.023 h⁻¹
same,MRT,[2]; [19],12.0 ± 2.6 h
same,t1/2,[2]; [19],9.7 ± 4.3 h
same,tmax,[2]; [19],5.0 ± 1.7 h
same,Cmax,[2]; [20],980 ± 560 ng/mL
same,Cmax/AUC,[2]; [20],0.100 ± 0.016 h⁻¹
same,MRT,[2]; [20],12.2 ± 1.4 h
same,t1/2,[2]; [20],7.0 ± 2.5 h
same,tmax,[2]; [20],6.0 ± 1.3 h
same,AUC of AZT,[3],88500 ± 25500 ng·h/mL
same,Cmax of AZT,[3],39640 ± 4240 ng/mL
same,MRT of AZT,[3],2.10 ± 0.30 h
same,t1/2 of AZT,[3],2.13 ± 0.71 h
same,tmax of AZT,[3],1.0 h
same,AUC 0-t,[4],2270 ng·h/mL
same,MRT,[4],6.54 h
same,tmax,[4],4 h
same,Сmax,[4],0.4 mg/L
same,С0 of AZT in plasma,[5]; [21],0.17 ± 0.07 mg/L
same,Сmin of AZT in plasma,[5]; [21],0.17 ± 0.07 mg/L
same,tmax of AZT,[5]; day 1,2.7 h
same,tmax of AZT,[5]; day 7,4 h
same,half-life period (blood plasma),[6]; AZT concentration after oral administration of phosphonate 2,3.9 h
same,"detection of AZT in organs and tissues (liver, kidneys, spleen, lungs, skeletal muscles, mesentery)",[6]; metabolite of phosphonate 2,detected in all these organs and tissues
"Cc1cn(C2CC(N=[N+]=[N-])C(CO[PH](=O)[O-])O2)c(=O)[nH]c1=O.[Na+] (centres unmarked) [Compound 1, sodium salt of AZT 5’-H-phosphonate]",toxicity as compared to AZT,[7],lower
same,therapeutic efficacy,[8]; HIV-infected patients receiving HAART,significant therapeutic efficacy
same,tolerability,[8]; adults and children,well tolerated in both adults and children
same,"therapeutic effect (reduction of viral stress, immunorestoration, decrease in risk of concomitant diseases)",[8]; clinical practice,stable positive therapeutic effect
same,"adverse effects typically observed with AZT (vomiting, nausea, headache, diarrhea, myalgia, anemia, thrombocytopenia, neutrocytopenia)",[8]; during phosphazide therapy,No adverse effects
same,safety in patients with opportunistic infections,[8]; patients with tuberculosis and liver pathologies of viral etiology,safe for patients with tuberculosis and liver pathologies of viral etiology
same,penetration of AZT through the placenta,[9]; AZT from phosphazide,capable of efficiently penetrating the placenta
same,"effect on course of pregnancy, fetal maturity or viability",[9]; HIV-infected women,does not affect
same,prevention of vertical transmission of HIV,"[9]; during pregnancy, combined with Retrovir or Nevirapine during childbirth and postnatal period",efficiently prevents vertical transmission of HIV
same,mean lethal dose (LD50),[10],2300 mg/kg
same,anti-HIV activity,[11],moderate
same,selectivity index compared to AZT,[11],higher than that of AZT
same,activity compared to AZT,[12],lower than that of AZT by almost an order of magnitude
same,"anti-HIV activity, times higher vs. that of AZT",[13],10–20 times
same,"selectivity index, times higher than that of AZT",[14],1.5 times
same,"selectivity index, times higher than that of AZT",[15],15 times
same,half-life in 100% human blood serum,[16],over 6 h
same,Т1/2 in canine whole blood,[17],3 h
